Laboratory results: US12268674B2, “Mi-2β inhibitor as an immunotherapy agent” (BioVentures, LLC, priority 2021, dated 2025)

How the values were obtained:
[1] = biological target: T1, recombinant purified human Mi-2β protein (Homo sapiens, UniProt Q14839); assay: FRET-based nucleosome repositioning assay (EpiDyne-FRET); type: biochemical
T1 construct: made in house
Experimental: To screen small molecules that inhibit Mi-2β activity, Homology Modeling was carried out using Structure Prediction Wizard in Prime (49, 50). Mi-2β belongs to the CHD family of chromatin remodelers, which share highly conserved ATPase/helicase domains (51, 52). The Homology Model of Mi-2β was generated using the yeast CHD1 structure (PDB code: 3MWY) as template and the sequence was obtained from Uniprot (53), which clearly depicted the interaction of Mi-2β binding pocket and ATP (FIG. 10a). Virtual screening was done with the enzyme hinge region ligands database and nucleoside mimetic database from Enamine. All ligands of ˜23,010 compounds were docked to the ATP binding site using SP docking and post-processed with Prime MM-GBSA. Ligands with a methyldihydroimidazopyridinone structure were predicted to bind best to the ATP binding region of Mi-2β. To analyze biochemically the inhibitory activity of those inhibitors, a Fluorescence Resonance Energy Transfer (FRET)-based nucleosome repositioning assay (54, 55) was designed and modified using recombinant purified human Mi-2β protein to screen an in-house library of small molecular compounds with a methyldihydroimidazopyridinone structure (FIG. 10b). Briefly, the recombinant nucleosome substrates consist of a Cy5-labeled human histone octamer (H2A T120C-Cy5) wrapped with 5′ Cy3-labeled DNA, which contains a terminal nucleosome 601 positioning sequence. The 601 sequence provides the most thermodynamically preferred locations on DNA for histone octamer (56). FRET signaling was monitored by exciting the nucleosomes at the Cy3 absorption maximum and measuring Cy5 emissions and consequently the FRET signal is at a maximum at the assembled starting point. In the presence of ATP, Mi-2β induces the histone octamer to translocate along the DNA such that the Cy3-labeled DNA 5′ end is moved away from the Cy5-labeled octamer and consequently the FRET signal is decreased (FIG. 10b). The reaction conditions for nucleosome repositioning were modified through multiple rounds of optimization and validation (FIG. 10c-d). […]

[2] = Pharmacokinetics of Z36-MP5 in rats; type: in vivo; conditions: Sprague-Dawley rats; intraperitoneal 1.0 mg/kg
Experimental: Compound Z36-MP5 was evaluated in a pharmacokinetic study in male Sprague-Dawley (SD) rats following intraperitoneal injection of Z36-MP5 at 1.0 mg/kg as a solution in 5% DMSO, 30% PEG400, and 65% corn oil. Blood was collected at 0.25 h, 0.5 h, 1 h, 2 h, 4 h, 8 h, and 24 h following intraperitoneal injection. The blood samples were placed in wet ice, and serum was collected after centrifugation. Serum samples were frozen and stored at −80° C. The serum samples were analyzed utilizing HPLC-coupled tandem mass spectrometry (LC-MS/MS). Values are calculated from arithmetic mean plasma concentrations (n=3 rats per condition).

ABCB7 = biological target: T2, ABCB7 (Homo sapiens, UniProt O75027); assay: ATPase profile (ATP acyl phosphate probe); type: binding; conditions: ABCB7, SEQ ID NO: 4, ATP BS
T2 construct: to get the native cell lysate; host or cells: A375 cell lysate

ABCD4 = biological target: T3, ABCD4 (Homo sapiens, UniProt O14678); assay: ATPase profile (ATP acyl phosphate probe); type: binding; conditions: ABCD4, SEQ ID NO: 14, ATP BS
T3 construct: to get the native cell lysate; host or cells: A375 cell lysate

AK2 = biological target: T4, AK2 (Homo sapiens, UniProt P54819); assay: ATPase profile (ATP acyl phosphate probe); type: binding; conditions: AK2, SEQ ID NO: 33, ATP BS
T4 construct: to get the native cell lysate; host or cells: A375 cell lysate

HDDC3 = biological target: T5, HDDC3 (Homo sapiens, UniProt Q8N4P3); assay: ATPase profile (ATP acyl phosphate probe); type: binding
T5 construct: to get the native cell lysate; endogenous in cells; host or cells: A375

MCM4 = biological target: T6, MCM4 (Homo sapiens, UniProt P33991); assay: ATPase profile (ATP acyl phosphate probe); type: binding; conditions: MCM4, SEQ ID NO: 118, ATP BS; read-out: Inhibition (%) by 1 μM Z36-MP5
T6 construct: to get the native cell lysate; endogenous in cells; host or cells: A375

ME2 = biological target: T7, ME2 (Homo sapiens, UniProt P23368); assay: ATPase profile (ATP acyl phosphate probe); type: binding
T7 construct: to get the native cell lysate; endogenous in cells; host or cells: A375

MMAB = biological target: T8, MMAB (Homo sapiens, UniProt Q96EY8); assay: ATPase profile (ATP acyl phosphate probe); type: binding; conditions: SEQ ID NO: 124, ATP BS
T8 construct: to get the native cell lysate; endogenous in cells; host or cells: A375

SKIV2L = biological target: T9, SKIV2L (Homo sapiens, UniProt Q15477); assay: ATPase profile (ATP acyl phosphate probe); type: binding; conditions: SEQ ID NO: 191, ATP BS
T9 construct: to get the native cell lysate; endogenous in cells; host or cells: A375 cell lysate

TTLL12 = biological target: T10, TTLL12 (Homo sapiens, UniProt Q14166); assay: ATPase profile (ATP acyl phosphate probe); type: binding
T10 construct: to get the native cell lysate; endogenous in cells; host or cells: A375 cell lysate
T10 sequence (Q14166 whole entry): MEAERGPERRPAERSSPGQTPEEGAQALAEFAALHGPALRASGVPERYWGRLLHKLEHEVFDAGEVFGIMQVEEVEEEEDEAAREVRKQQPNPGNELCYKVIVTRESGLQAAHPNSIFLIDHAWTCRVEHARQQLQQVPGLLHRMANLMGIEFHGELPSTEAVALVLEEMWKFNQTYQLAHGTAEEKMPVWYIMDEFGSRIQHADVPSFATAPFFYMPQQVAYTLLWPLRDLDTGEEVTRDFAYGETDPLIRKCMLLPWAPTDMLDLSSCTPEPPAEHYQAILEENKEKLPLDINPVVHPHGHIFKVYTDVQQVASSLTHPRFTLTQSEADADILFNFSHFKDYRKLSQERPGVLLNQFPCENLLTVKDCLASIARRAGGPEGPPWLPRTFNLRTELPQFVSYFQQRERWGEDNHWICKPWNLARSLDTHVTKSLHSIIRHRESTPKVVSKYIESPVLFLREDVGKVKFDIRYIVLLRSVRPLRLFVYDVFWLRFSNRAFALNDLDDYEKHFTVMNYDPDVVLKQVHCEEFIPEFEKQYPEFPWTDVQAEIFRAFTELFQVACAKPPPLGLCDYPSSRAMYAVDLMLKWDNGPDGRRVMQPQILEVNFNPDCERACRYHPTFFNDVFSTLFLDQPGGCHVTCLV

T5 sequence (Q8N4P3 whole entry): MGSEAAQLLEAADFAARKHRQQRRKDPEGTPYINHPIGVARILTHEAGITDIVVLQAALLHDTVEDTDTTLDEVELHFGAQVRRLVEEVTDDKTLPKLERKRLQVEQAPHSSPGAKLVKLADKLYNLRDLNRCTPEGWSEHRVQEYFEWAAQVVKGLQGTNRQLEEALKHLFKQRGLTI
T1 sequence (Q14839 whole entry): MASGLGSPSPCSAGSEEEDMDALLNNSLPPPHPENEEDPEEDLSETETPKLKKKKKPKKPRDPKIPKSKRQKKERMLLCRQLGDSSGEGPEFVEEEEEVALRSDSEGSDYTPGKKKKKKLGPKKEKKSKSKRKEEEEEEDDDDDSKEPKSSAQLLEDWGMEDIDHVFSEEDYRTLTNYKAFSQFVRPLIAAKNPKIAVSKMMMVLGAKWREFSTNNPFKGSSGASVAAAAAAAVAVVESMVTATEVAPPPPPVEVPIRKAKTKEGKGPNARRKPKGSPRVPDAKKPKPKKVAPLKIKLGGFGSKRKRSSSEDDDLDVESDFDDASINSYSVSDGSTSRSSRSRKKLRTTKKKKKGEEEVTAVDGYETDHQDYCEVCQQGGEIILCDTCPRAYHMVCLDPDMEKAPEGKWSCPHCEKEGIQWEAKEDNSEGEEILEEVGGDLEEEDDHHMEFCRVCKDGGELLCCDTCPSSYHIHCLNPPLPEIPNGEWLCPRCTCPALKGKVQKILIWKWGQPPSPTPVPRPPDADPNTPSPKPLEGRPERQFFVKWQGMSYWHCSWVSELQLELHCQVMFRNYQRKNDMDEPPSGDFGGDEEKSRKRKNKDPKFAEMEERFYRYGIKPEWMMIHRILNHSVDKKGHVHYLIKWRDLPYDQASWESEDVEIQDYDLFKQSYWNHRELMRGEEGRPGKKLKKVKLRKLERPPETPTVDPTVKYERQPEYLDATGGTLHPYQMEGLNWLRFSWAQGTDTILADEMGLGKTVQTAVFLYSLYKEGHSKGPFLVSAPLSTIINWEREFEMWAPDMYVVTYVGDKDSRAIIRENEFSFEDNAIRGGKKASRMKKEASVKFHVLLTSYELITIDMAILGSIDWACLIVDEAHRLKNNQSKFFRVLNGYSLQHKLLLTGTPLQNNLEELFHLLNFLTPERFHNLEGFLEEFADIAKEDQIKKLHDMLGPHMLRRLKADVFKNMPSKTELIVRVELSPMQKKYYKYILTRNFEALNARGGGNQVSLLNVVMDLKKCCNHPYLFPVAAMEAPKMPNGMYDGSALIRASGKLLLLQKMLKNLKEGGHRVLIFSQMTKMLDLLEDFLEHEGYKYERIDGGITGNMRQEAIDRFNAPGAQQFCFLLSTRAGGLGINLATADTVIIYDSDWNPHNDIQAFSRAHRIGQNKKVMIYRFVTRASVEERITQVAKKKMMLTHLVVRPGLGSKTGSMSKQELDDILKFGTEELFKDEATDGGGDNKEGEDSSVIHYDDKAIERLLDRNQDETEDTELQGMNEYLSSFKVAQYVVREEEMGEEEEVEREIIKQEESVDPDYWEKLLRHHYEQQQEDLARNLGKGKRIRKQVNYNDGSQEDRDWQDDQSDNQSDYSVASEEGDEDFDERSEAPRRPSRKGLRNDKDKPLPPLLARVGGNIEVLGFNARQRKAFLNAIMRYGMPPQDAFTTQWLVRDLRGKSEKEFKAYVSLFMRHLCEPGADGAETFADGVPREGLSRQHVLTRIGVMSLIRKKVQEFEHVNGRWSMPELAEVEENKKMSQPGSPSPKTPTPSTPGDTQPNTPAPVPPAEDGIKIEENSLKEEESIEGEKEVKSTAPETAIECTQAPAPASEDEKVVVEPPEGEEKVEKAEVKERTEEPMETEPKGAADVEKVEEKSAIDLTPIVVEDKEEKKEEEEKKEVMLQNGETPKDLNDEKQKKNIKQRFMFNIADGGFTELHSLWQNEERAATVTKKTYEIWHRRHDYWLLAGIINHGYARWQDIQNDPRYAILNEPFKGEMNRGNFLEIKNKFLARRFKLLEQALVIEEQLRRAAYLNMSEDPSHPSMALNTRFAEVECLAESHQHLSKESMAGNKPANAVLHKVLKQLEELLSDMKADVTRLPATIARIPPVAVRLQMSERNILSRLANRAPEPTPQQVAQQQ
T7 sequence (P23368 19-584): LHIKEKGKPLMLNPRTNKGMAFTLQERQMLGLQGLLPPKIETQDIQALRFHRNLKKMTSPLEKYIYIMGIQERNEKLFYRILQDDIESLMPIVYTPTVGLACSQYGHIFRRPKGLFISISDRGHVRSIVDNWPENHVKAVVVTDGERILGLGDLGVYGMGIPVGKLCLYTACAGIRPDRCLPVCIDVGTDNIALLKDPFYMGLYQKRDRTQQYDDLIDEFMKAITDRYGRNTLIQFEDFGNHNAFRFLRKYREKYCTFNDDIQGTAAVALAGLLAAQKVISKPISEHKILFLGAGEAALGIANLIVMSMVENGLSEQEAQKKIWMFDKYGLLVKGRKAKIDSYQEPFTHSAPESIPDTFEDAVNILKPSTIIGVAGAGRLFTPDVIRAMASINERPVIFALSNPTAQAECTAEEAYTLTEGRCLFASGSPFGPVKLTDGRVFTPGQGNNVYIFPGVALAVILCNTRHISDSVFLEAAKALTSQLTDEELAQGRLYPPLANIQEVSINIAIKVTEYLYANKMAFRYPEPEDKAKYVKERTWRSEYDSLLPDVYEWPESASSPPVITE
T9 sequence (Q15477 whole entry): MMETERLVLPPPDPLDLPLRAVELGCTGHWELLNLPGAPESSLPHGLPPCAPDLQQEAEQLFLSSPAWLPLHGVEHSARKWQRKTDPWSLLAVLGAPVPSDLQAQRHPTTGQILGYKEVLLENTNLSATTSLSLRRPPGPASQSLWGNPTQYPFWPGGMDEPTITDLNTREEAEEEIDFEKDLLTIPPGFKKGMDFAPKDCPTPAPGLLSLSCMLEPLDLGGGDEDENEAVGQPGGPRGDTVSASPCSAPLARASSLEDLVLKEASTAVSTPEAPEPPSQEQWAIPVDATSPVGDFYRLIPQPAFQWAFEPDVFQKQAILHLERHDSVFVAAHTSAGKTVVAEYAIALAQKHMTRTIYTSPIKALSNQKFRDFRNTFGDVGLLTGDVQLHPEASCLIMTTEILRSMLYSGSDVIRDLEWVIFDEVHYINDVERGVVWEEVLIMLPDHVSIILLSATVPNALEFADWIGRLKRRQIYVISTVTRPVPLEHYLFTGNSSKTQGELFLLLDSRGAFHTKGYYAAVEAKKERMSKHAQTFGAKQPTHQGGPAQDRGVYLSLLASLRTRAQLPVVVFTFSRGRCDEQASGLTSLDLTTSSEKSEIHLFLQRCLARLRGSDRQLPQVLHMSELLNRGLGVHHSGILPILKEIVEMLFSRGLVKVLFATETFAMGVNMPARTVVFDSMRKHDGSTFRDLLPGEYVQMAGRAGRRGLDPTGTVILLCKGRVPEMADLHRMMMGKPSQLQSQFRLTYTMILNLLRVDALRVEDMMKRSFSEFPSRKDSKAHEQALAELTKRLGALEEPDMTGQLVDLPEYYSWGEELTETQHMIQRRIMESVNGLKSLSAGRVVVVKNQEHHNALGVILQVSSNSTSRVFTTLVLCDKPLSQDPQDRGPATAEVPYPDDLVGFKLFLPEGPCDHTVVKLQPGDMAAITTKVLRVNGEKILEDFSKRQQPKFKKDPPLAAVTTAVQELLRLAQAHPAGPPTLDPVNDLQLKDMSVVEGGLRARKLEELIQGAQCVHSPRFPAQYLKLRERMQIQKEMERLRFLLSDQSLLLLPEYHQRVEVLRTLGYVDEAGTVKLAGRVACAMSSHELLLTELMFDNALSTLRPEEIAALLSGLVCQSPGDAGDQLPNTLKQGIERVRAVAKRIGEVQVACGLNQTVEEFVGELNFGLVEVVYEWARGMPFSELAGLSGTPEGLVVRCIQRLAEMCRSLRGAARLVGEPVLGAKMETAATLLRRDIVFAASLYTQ
T8 sequence (Q96EY8 33-250): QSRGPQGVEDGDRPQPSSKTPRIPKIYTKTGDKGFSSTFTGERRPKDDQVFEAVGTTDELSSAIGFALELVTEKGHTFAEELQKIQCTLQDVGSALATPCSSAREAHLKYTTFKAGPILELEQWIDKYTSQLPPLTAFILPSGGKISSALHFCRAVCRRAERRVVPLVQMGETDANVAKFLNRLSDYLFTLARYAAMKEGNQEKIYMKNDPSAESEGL

## Cn1c(=O)[nH]c2ccc(-c3cccc(C(=O)NC4CCn5ccnc5C4)c3)cc21 (stereo not drawn) [Z36-MP5, 3-(3-methyl-2-oxo-2,3-dihydro-1H-benzo[d]imidazol-5-yl)-N-(5,6,7,8-tetrahydroimidazo[1,2-a]pyridin-7-yl)benzamide]
[1]; FRET-based nucleosome repositioning assay, read-out: IC50 against Mi-2β
  IC50: 82 ± 13 nM
[1]; ratio of IC50 against Mi-2β
  fold more potent than the original compound Z36: ~85 fold
[2]
  half-life T1/2: 27 min
ABCB7
  Inhibition (%) by 1 μM Z36-MP5: 0.34%
ABCD4
  Inhibition (%) by 1 μM Z36-MP5: 11.24%
AK2
  Inhibition (%) by 1 μM Z36-MP5: −4.75%
HDDC3; HDDC3, SEQ ID NO: 90, ATP BS
  Inhibition (%) by 1 μM Z36-MP5: 1.23%
HDDC3; HDDC3, SEQ ID NO: 91, ATP BS
  Inhibition (%) by 1 μM Z36-MP5: 17.25%
MCM4
  inhibition at 1 µM: 4.98%
ME2; ME2, SEQ ID NO: 122, ATP BS
  Inhibition (%) by 1 μM Z36-MP5: −6.47%
ME2; ME2, SEQ ID NO: 123, ATP BS
  Inhibition (%) by 1 μM Z36-MP5: −16.71%
MMAB
  Inhibition (%) by 1 μM Z36-MP5: −4.08%
SKIV2L
  Inhibition (%) by 1 μM Z36-MP5: −3.49%
TTLL12; TTLL12, SEQ ID NO: 215, ATP BS
  Inhibition (%) by 1 μM Z36-MP5: −5.29%
TTLL12; TTLL12, SEQ ID NO: 216, ATP BS
  Inhibition (%) by 1 μM Z36-MP5: −17.65%
